Experimental data as given in ChEMBL document CHEMBL4190202, “Gunnilactams A-C, Macrocyclic Tetralactams from the Mycelial Culture of the Entomogenous Fungus Paecilomyces gunnii” (J Nat Prod, 2017).

Experiments:
LNCaP C4-2B = assay: Cytotoxicity against human C4-2B cells after 72 hrs by MTT assay; format: functional, cell-based
DU-145 = assay: Growth inhibition of human DU145 cells at 2 uM after 72 hrs by MTT assay relative to control; format: functional; settings: DU-145, 72 h, read-out: GI

For C[C@@H]1NC(=O)/C=C/[C@@H](O)CC[C@H](C)NC(=O)[C@H]2C[C@]1(O)NC1=C2C(=O)N[C@@H](C)C1, which IC50 (LNCaP C4-2B) is on record?
Its IC50 is 5.4 µM.

What about the inhibition of growth at 2 µM (DU-145) of the same molecule?
Its inhibition of growth at 2 µM is 4.5%.
